According to patent US4689321A, “Oxo propenyl nucleosides and nucleoside related analogs” (The Research Foundation of State University of New York, priority 1984, dated 1987):

Legend:
murine leukemia = murine leukemia model, ascites cells implanted i.p. in mice (Table I); type: in vivo, murine (CFD1+ mice); settings: for Effect MST % T/C: >125 considered significant; for MST (median survival time): control 6.5
Description: Tumor Inoculum: 10^6 ascites cells implanted i.p.
Evaluation: MST = median survival time
Effect: % T/C = (MST treated/MST control) × 100.

L-1210 Leukemia = assay: tumor cell growth in culture, L-1210 Leukemia; type: cell-based; settings: Mus musculus, L1210, testing at Roswell Park Memorial Institute
Description: (§1) on Tumor Cell Growth in Culture
(§2) ^a Testing performed at Roswell Park Memorial Institute. See proposal
(§3) for methodology and references.

Lewis lung carcinoma = assay: tumor cell growth in culture, Lewis lung carcinoma; type: cell-based; settings: testing at Roswell Park Memorial Institute
Description: as §1, §2, §3

B-16 melanoma = assay: tumor cell growth in culture, B-16 melanoma; type: cell-based; settings: Mus musculus, B16, testing at Roswell Park Memorial Institute
Description: as §1, §2, §3

[1] = test system: DLD-1 human colon carcinoma; assay: tumor cell growth in culture, DLD-1 human colon carcinoma; type: cell-based; settings: testing at Brown University
Description: as §1
^b Testing performed at Brown University. Cell lines and methodology

[2] = test system: DNA synthesis in HeLa cells; assay: inhibition of DNA synthesis in HeLa cells; type: cell-based; settings: Homo sapiens, 1 h, 60 min
Protocol: (§4) Effects of Inhibitors on Synthesis of DNA and TTP in HeLa Cells
^a Measured, over a period of 60 min., as described in the Legend to […]

[3] = test system: TTP formation in HeLa cells; assay: inhibition of TTP formation in HeLa cells; type: cell-based; settings: Homo sapiens, 0.5 h, 30 min
Protocol: as §4
^b HeLa cells were suspended for 30 min. in 2 ml. of minimal essentia
media containing 25 uCi of ^3 H--thymidine. Cells were lysed, carrier
nucleotides added and ^3 H--TTP isolated by thin layer chromatography

DNA synthesis = assay: cytotoxicity and effect on DNA, RNA and protein synthesis (Fig. I); type: cell-based
[4] = 2 mg/kg/inj IP, schedule qd 1 5
[5] = 4 mg/kg/inj IP, schedule qd 1 5
[6] = 8 mg/kg/inj IP, schedule qd 1 5
[7] = 16 mg/kg/inj IP, schedule qd 1 5

## Cc1cn([C@H]2C[C@H](O)[C@@H](CO)O2)c(=O)n(C=CC=O)c1=O [XX-336, 3-(thymidin-3-yl)-prop-2-enal]
Murine leukemia; [4]
  Effect MST % T/C: 123%
  MST (median survival time): 8.0 days
Murine leukemia; [5]
  Effect MST % T/C: 123%
  MST (median survival time): 8.0 days
Murine leukemia; 8 mg/kg/inj IP, schedule d.1
  Effect MST % T/C: 154%
  MST (median survival time): 10.0 days
Murine leukemia; [6]
  Effect MST % T/C: 146%
  MST (median survival time): 9.5 days
Murine leukemia; 16 mg/kg/inj IP, schedule d.1
  Effect MST % T/C: 131%
  MST (median survival time): 8.5 days
Murine leukemia; [7]
  Effect MST % T/C: 146%
  MST (median survival time): 9.5 days
Murine leukemia; 32 mg/kg/inj IP, schedule d.1
  Effect MST % T/C: 123%
  MST (median survival time): 8.0 days
L-1210 Leukemia
  IC50: 1.6 µM
Lewis lung carcinoma
  IC50: 5.9 µM
B-16 melanoma
  IC50: 4.2 µM
[1]
  IC50: 5 µM
[2]; 0.1 μM
  inhibition at 0.1 µM: 6%
[2]; 0.3 μM
  inhibition at 0.3 µM: 38%
[2]; 1.0 μM
  inhibition at 1 µM: 70%
[2]; 2.0 μM
  inhibition at 2 µM: 88%
[2]; 20.0 μM
  inhibition at 20 µM: 100%
[3]; 0.1 μM
  inhibition at 0.1 µM: 6%
[3]; 0.3 μM
  inhibition at 0.3 µM: 50%
[3]; 1.0 μM
  inhibition at 1 µM: 75%
[3]; 2.0 μM
  inhibition at 2 µM: 85%
[3]; 20.0 μM
  inhibition at 20 µM: 95%
DNA synthesis
  cytotoxicity associated with inhibition of DNA synthesis: associated dominantly with the inhibition of DNA synthesis
